Experimental data published in US20090318690A1 (priority 2006, published 2009).
Where a name gives a salt, the structure may show the parent alone.

Columns and labels:
acetylcholine esterase = molecular target: T1, acetylcholine esterase (Rattus norvegicus, UniProt P37136); test: Acetylcholine esterase inhibitory activity (Ellman method); assay type: biochemical; conditions: supernatant of male Wistar rat cerebral homogenate; acetylthiocholine/DTNB, absorbance 412 nm; read-out: Acetylcholine esterase inhibition (IC50)
T1 construct: a centrifugation supernatant of a male Wistar rat cerebral homogenate as an acetylcholine esterase source; from tissue; host or cells: male Wistar rat cerebrum, Triton X-100 homogenate supernatant
T1 sequence (P37136 32-614): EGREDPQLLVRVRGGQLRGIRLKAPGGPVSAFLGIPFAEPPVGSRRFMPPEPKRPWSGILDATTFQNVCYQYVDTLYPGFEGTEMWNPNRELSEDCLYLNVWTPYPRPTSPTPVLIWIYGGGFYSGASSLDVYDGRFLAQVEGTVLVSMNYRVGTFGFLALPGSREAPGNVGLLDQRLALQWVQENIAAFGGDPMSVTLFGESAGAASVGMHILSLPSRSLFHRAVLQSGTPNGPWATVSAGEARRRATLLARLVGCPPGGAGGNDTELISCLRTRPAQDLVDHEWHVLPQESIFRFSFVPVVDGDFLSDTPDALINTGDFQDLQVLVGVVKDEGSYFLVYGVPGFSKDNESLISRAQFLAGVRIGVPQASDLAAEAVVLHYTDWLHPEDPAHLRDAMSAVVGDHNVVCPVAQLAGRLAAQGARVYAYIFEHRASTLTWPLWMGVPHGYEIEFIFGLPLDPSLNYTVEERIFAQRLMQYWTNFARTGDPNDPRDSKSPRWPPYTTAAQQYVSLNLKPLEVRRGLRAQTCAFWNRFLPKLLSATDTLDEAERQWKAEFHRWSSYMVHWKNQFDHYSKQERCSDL
Experimental: Esterase activity was measured according to the method of Ellman et al. (Biochem. Pharmacol., 1961, 7, 88-95) using a centrifugation supernatant of a male Wistar rat cerebral homogenate as an acetylcholine esterase source. First, a sample dissolved in dimethyl sulfoxide (DMSO) (10 mM) was dissolved in water to 30 μM, and eight serial dilutions were prepared at a common ratio of 3 with 30 μM as a highest concentration. Next, 18 times weight of a phosphate buffer [0.1 M phosphate buffer (0.1 M Na2HPO4, prepared from 0.1 M KH2PO4; pH 8.0) with 0.5% Triton X-100] was added to the rat cerebrum. The mixture was homogenized and centrifuged at 3000 rpm for five minutes. The supernatant was diluted 30-fold with a phosphate buffer (pH 8.0) and dispensed to a 96-well plate at 165 μL/well. 6 μL of the diluted sample was added, followed by preincubation at room temperature for about 10 minutes. Thereafter, 9 μL of a reaction mixture [10 mM 5,5′-dithiobis(2-nitrobenzoic acid) (DTNB)/0.1 M phosphate buffer (pH 7.0) with 6 μL of 0.15% NaHCO3+90 mM acetylthiocholine iodide/1 μL of H2O+2 μL of 0.1 M phosphate buffer (pH 8.0)] was added and the absorbance (412 nm) of anions (yellow) of 5-thio-2-nitrobenzoic acid generated by reaction of the produced thiocholine with DTNB anions was measured at room temperature. The acetylcholine esterase activity was determined from the change in absorbance between two minutes and four minutes after the start of the reaction. The inhibition rate (%) of the test compound was determined based on the acetylcholine esterase activity when the compound was not added as 100% and the 50% inhibition concentration (IC50) was calculated.

[1] = molecular target: T2, serotonin transporter (SERT) (Rattus norvegicus, UniProt P31652); test: Serotonin transporter binding inhibitory activity ([3H]paroxetine binding, rat cerebral cortex membrane fraction)
T2 construct: The rat cerebral cortex was homogenized in ice-cold 0.32 M sucrose; from tissue; host or cells: rat cerebral cortex membrane fraction
Experimental: Affinity of the test substance to a serotonin transporter (SERT) was determined by a test of inhibition of binding of [^3H]paroxetine selectively binding to SERT to a rat cerebral cortex membrane fraction by the test substance. Serotonin reuptake inhibitors are generally known to have SERT binding inhibitory activity. Based on the assumption that the intensity of SERT binding inhibitory activity of the test substance indicates the intensity of reuptake inhibitory activity, affinity of the test substance to SERT was determined and the intensity of the activity was estimated (according to the method described in Marcusson, J.; Eriksson, K; J. Neurochemistry, 1988, 51 (5), 1477).
The rat cerebral cortex was homogenized in ice-cold 0.32 M sucrose. The suspension was centrifuged at 1,000×g for 10 minutes. The resulting supernatant was further centrifuged at 20,000×g for 20 minutes. The resulting precipitate was suspended in 50 mM Tris-HCl (pH 7.4) containing 120 mM NaCl and 5 mM KCl (hereinafter called suspension A) and centrifuged at 20,000×g for 20 minutes. The same operation was repeated once more. The finally obtained precipitate was suspended in a suspension A having a wet weight about 100 times that of the rat cerebral cortex to prepare a membrane fraction which was stored at −80° C. until use.
An incubation mixture (0.5 mL) contained a solution obtained by further diluting the test substance dissolved in DMSO (dimethyl sulfoxide) to a desired concentration (control: only DMSO) 500-fold with purified water (25 μL); a [^3H]paroxetine solution (final concentration: 0.05 nM) as a ligand (25 μL); and the membrane fraction prepared as described above (450 μL). The reaction was started by addition of the membrane fraction, followed by incubation at room temperature for 90 minutes. After the incubation, the mixture was filtered by suction through a GF/B filter using a cell harvester. The filter was washed with 50 mM Tris-HCl (pH 7.4) and then radioactivity of [^3H]paroxetine binding to SERT was measured using a liquid scintillation counter. Binding detected in the presence of 1 or 10 μM fluoxetine was defined as non-specific binding.

T2 sequence (P31652 whole entry): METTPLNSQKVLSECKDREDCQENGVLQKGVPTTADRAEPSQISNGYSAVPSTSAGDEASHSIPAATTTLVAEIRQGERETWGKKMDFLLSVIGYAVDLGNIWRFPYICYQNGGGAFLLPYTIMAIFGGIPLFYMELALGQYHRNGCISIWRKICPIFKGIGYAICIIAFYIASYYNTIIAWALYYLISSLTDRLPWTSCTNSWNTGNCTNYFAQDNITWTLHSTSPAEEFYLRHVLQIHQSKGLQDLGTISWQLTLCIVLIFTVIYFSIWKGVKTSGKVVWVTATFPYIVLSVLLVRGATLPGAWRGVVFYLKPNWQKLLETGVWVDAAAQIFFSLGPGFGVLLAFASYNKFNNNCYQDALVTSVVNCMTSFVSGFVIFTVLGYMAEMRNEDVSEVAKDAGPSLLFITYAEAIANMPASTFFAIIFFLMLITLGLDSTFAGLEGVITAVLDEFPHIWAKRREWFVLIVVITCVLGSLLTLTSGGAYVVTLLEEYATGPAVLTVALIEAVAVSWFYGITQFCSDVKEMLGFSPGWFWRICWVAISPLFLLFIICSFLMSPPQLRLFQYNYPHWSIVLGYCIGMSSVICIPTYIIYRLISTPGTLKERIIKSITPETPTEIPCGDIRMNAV

SMILES | IC50 (acetylcholine esterase) | IC50 [1]
CN(C)Cc1c(OCc2ccc(F)cc2)ccc2c(CCC3CCN(CC4OCCO4)CC3)noc12 [Example 22, N,N-Dimethyl{3-{2-[1-(1,3-dioxolan-2-ylmethyl)piperidin-4-yl]ethyl}-6-(4-fluorobenzyloxy)benz[d]isoxazol-7-yl}methylamine dihydrobromide] | 4.1 nM | 1.6 nM
CN(C)Cc1ccc2c(CCC3CCN(Cc4ccccc4)CC3)noc2c1OCC1CC1 [Example 178, N,N-Dimethyl{3-[2-(1-benzylpiperidin-4-yl)ethyl]-7-cyclopropylmethoxybenz[d]isoxazol-6-yl}methylamine dihydrochloride] | 4.1 nM | 62 nM
CN(C)Cc1c(OCC2CC2)ccc2c(CCC3CCN(Cc4ccc(C#N)s4)CC3)noc12 [Example 155, 5-{4-{2-[6-Cyclopropylmethoxy-7-(N,N-dimethylaminomethyl)benz[d]isoxazol-3-yl]ethyl}piperidinomethyl}thiophene-2-carbonitrile dihydrochloride] | 5 nM | 5.3 nM
CN(C)Cc1c(OCc2ccc(C#N)cc2)ccc2c(CCC3CCN(CC4OCCO4)CC3)noc12 [Example 154, 4-{7-(N,N-Dimethylaminomethyl)-3-{2-[1-(1,3-dioxolan-2-ylmethyl)piperidin-4-yl]ethyl}benz[d]isoxazol-6-yloxymethyl}benzonitrile fumarate] | 3 nM | 1 nM
CN(C)Cc1c(OCC2CC2)ccc2c(CCC3CCN(CC4(CO)CCCC4)CC3)noc12 [Example 51, {1-{4-{2-[6-Cyclopropylmethoxy-7-(N,N-dimethylaminomethyl)benz[d]isoxazol-3-yl]ethyl}piperidinomethyl}cyclopentyl}methanol dihydrochloride] | 3.6 nM | 1.9 nM
CNCc1c(OCc2ccc(F)cc2)ccc2c(CCC3CCN(CC4OCCO4)CC3)noc12 [Example 78, N-Methyl{3-{2-[1-(1,3-dioxolan-2-ylmethyl)piperidin-4-yl]ethyl}-6-(4-fluorobenzyloxy)benz[d]isoxazol-7-yl}methylamine dihydrochloride] | 0.7 nM | 1.1 nM
CN(C)Cc1c(OCc2ccc(C#N)cc2)ccc2c(CCC3CCN(Cc4ccccc4)CC3)noc12 [Example 153, 4-{3-[2-(1-Benzylpiperidin-4-yl)ethyl]-7-(N,N-dimethylaminomethyl)benz[d]isoxazol-6-yloxymethyl}benzonitrile dihydrochloride] | 0.4 nM | 0.3 nM
CN(C)Cc1c2ccccc2cc2c(CCC3CCN(Cc4ccc(C#N)s4)CC3)noc12 [Example 151, 5-{4-{2-[9-(N,N-Dimethylaminomethyl)naphtho[2,3-d]isoxazol-3-yl]ethyl}piperidinomethyl}thiophene-2-carbonitrile dihydrochloride] | 33 nM | 54 nM
CN(C)Cc1c(OCC2CC2)ccc2c(CCC3CCN(CC4CCCc5sccc54)CC3)noc12 (centres unmarked) [Example 93, N,N-Dimethyl{6-cyclopropylmethoxy-3-{2-[1-(4,5,6,7-tetrahydrobenzo[b]thiophen-4-ylmethyl)piperidin-4-yl]ethyl}benz[d]isoxazol-7-yl}methylamine dihydrochloride] | 73 nM | 8.9 nM
CN(C)Cc1c(OCC2CC2)ccc2c(CCC3CCN(Cc4ccccc4)CC3)noc12 [Example 39, N,N-Dimethyl{6-cyclopropylmethoxy-3-[2-(1-benzylpiperidin-4-yl)ethyl]benz[d]isoxazol-7-yl}methylamine dihydrochloride] | 0.4 nM | 13 nM
CN(C)Cc1c(OCC2CC2)ccc2c(CCC3CCN(Cc4c[nH]c5ccc(F)cc45)CC3)noc12 [Example 88, N,N-Dimethyl{6-cyclopropylmethoxy-3-{2-[1-(5-fluoro-1H-indol-3-ylmethyl)piperidin-4-yl]ethyl}benz[d]isoxazol-7-yl}methylamine dihydrochloride] | 7.7 nM | 5.3 nM
CN(C)Cc1c(N2CCCCC2)ccc2c(CCC3CCN(Cc4ccc(C#N)s4)CC3)noc12 [Example 210, 5-{4-{2-[7-(N,N-Dimethylaminomethyl)-6-piperidinobenz[d]isoxazol-3-yl]ethyl}piperidinomethyl}thiophene-2-carbonitrile dihydrochloride] | 2.4 nM | 12 nM
CN(C)Cc1c(N2CCOCC2)ccc2c(CCC3CCN(Cc4ccc(C#N)s4)CC3)noc12 [Example 213, 5-{4-{2-[7-(N,N-Dimethylaminomethyl)-6-morpholinobenz[d]isoxazol-3-yl]ethyl}piperidinomethyl}thiophene-2-carbonitrile dihydrochloride] | 3 nM | 19 nM
N#Cc1ccc(CN2CCC(CCc3noc4c(CN5CCC5)c(OCC5CC5)ccc34)CC2)s1 [Example 118, 5-{4-{2-[7-(Azetidin-1-ylmethyl)-6-cyclopropylmethoxybenz[d]isoxazol-3-yl]ethyl}piperidinomethyl}thiophene-2-carbonitrile fumarate] | 12 nM | 10 nM
CNCc1c2ccccc2cc2c(CCC3CCN(Cc4ccc(C#N)s4)CC3)noc12 [Example 152, 5-{4-{2-[9-(N-Methylaminomethyl)naphtho[2,3-d]isoxazol-3-yl]ethyl}piperidinomethyl}thiophene-2-carbonitrile dihydrochloride] | 4.9 nM | 10 nM
CN(C)Cc1c(-c2ccccc2)ccc2c(CCC3CCN(Cc4ccccc4)CC3)noc12 [Example 120, N,N-Dimethyl{3-[2-(1-benzylpiperidin-4-yl)ethyl]-6-phenylbenz[d]isoxazol-7-yl}methylamine dihydrochloride] | 1.3 nM | 0.9 nM
